Active and inactive are the calls of the source.
tested on: H4; assay: Luminescence Cell-Based Dose Response HTS to Identify Activators of 5'UTR Stem-Loop Driven Prion Protein mRNA Translation in H4 Neuroglioblastoma Cells. [Related pubchem assays: 1829 (Project Summary), 1814 (Primary HTS)]; assay type: functional; conditions: Homo sapiens

Compound	EC50
O=C(CSc1ccc(-c2ccccc2)nn1)Nc1ccc2c(c1)OCCO2	> 120 µM (not active)
Cc1ccc(N2C(=O)c3[nH]nc(C)c3C2c2ccco2)cc1 (stereo unspecified)	17.9 µM (inconclusive)
C=CCNC(=O)c1ccc(OC2CCN(S(=O)(=O)N(C)C)CC2)cc1	25.6 µM (active)
CC(C)N1C(=O)CC(Nc2ccc(N3CCOCC3)cc2)C1=O (stereo unspecified)	> 120 µM (not active)
Cn1c(-c2ccc3c(c2)OCO3)cnc1NCc1ccccc1	39.9 µM (active)

tested on: not listed separately; assay: inhibitors of HIV Env-driven cell fusion, dose response, cherry-pick (AID 652057); assay type: functional, cell-based; conditions: not given

Compound	AC50
CC(C)(C)N1C(=O)[C@H]2[C@@H](c3ccc(Br)cc3)N3C(=O)N(c4cccc(Cl)c4)C(=O)[C@@]3(C)[C@H]2C1=O	0.464 µM (active)
Cn1c(O)nc2cc3ccccc3cc21	1.46 µM (active)
CCN1C(=O)[C@H]2[C@H]3CN=C(SCc4ccc(Cl)cc4)N3[C@@](CC)(C(=O)OC)[C@H]2C1=O	3.34 µM (active)
CC[C@@]1(C(=O)OC)N[C@H](CN(C)C(=O)Nc2ccc(C(F)(F)F)cc2)[C@@H]2C(=O)N(Cc3ccccc3)C(=O)[C@@H]21	0.336 µM (active)
C[C@H]1CN([C@@H](C)CO)C(=O)Cc2cc(NC(=O)Nc3ccccc3)ccc2O[C@H]1CN(C)S(=O)(=O)c1ccccc1	5.16 µM (active)

tested on: not listed separately; assay: ZM109 Env clade C HIV-1 fusion inhibitors, dose response, HeLa effector, CEM target cells, luciferase, cherry-pick (AID 652058); assay type: functional, cell-based; conditions: not given

Compound	AC50
CC(C)(C)N1C(=O)[C@H]2[C@@H](c3ccc(Br)cc3)N3C(=O)N(c4cccc(Cl)c4)C(=O)[C@@]3(C)[C@H]2C1=O	0.542 µM (active)
Cn1c(O)nc2cc3ccccc3cc21	53.3 µM (active)
CCN1C(=O)[C@H]2[C@H]3CN=C(SCc4ccc(Cl)cc4)N3[C@@](CC)(C(=O)OC)[C@H]2C1=O	3.37 µM (active)
CC[C@@]1(C(=O)OC)N[C@H](CN(C)C(=O)Nc2ccc(C(F)(F)F)cc2)[C@@H]2C(=O)N(Cc3ccccc3)C(=O)[C@@H]21	0.604 µM (active)
C[C@H]1CN([C@@H](C)CO)C(=O)Cc2cc(NC(=O)Nc3ccccc3)ccc2O[C@H]1CN(C)S(=O)(=O)c1ccccc1	4.49 µM (active)

tested on: not listed separately; assay: inhibitors of clade B AD8 Env fusion, dose response, cell-based, cherry-pick (AID 652062); assay type: functional; conditions: not given;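 also: luciferase signal from cell-cell fusion driven by HIV-1 clade B AD8 Env; potency is for inhibitors of fusion seen as a drop in luminescence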

Compound	AC50
CC(C)(C)N1C(=O)[C@H]2[C@@H](c3ccc(Br)cc3)N3C(=O)N(c4cccc(Cl)c4)C(=O)[C@@]3(C)[C@H]2C1=O	3.2 µM (active)
Cn1c(O)nc2cc3ccccc3cc21	4.99 µM (active)
CCN1C(=O)[C@H]2[C@H]3CN=C(SCc4ccc(Cl)cc4)N3[C@@](CC)(C(=O)OC)[C@H]2C1=O	5.43 µM (active)
CC[C@@]1(C(=O)OC)N[C@H](CN(C)C(=O)Nc2ccc(C(F)(F)F)cc2)[C@@H]2C(=O)N(Cc3ccccc3)C(=O)[C@@H]21	1.21 µM (active)
C[C@H]1CN([C@@H](C)CO)C(=O)Cc2cc(NC(=O)Nc3ccccc3)ccc2O[C@H]1CN(C)S(=O)(=O)c1ccccc1	5.2 µM (active)

target: Glyceraldehyde-3-phosphate dehydrogenase (Homo sapiens, UniProt P04406); assay: not given; conditions: not given
Sequence (P04406 whole entry): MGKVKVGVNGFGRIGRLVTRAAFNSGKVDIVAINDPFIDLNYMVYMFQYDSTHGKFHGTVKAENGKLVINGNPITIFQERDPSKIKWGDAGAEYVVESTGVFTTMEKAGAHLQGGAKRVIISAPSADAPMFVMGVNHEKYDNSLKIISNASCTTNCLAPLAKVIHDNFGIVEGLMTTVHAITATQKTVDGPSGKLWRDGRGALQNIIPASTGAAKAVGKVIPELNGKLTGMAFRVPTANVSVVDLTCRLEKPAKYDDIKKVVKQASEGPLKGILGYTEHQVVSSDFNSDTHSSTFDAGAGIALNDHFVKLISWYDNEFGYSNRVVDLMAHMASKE

Compound	IC50
COc1cccc(CC(CC(=O)O)C(=O)O)c1 (stereo unspecified)	> 100 µM (not active)
CC(=O)Nc1nnc(SCc2cccc3ccccc23)[nH]1	> 100 µM (not active)
COc1cc(/C=C2/SC(=S)NC2=O)cc(Cl)c1OCc1ccc(Cl)cc1Cl	> 100 µM (not active)
Cc1cccc2cc(/C=C3\N=C(c4ccccc4)OC3=O)c(N(C)C)nc12	> 100 µM (not active)
COc1cc(C)c(Cl)cc1S(=O)(=O)Nc1cccnc1	> 10 µM (inconclusive)

tested on: not listed separately; assay: Luminescence Cell-Based Dose Confirmation HTS to Identify Activators of 5'UTR Stem-Loop Driven Alpha-Synuclein mRNA Translation in H4 Neuroglioblastoma Cells. [Related pubchem assays: 1829 (Project Summary), 1814 (Primary HTS)]; assay type: functional; conditions: not given

Compound	EC50
O=C(CSc1ccc(-c2ccccc2)nn1)Nc1ccc2c(c1)OCCO2	7.15 µM (active)
Cc1ccc(N2C(=O)c3[nH]nc(C)c3C2c2ccco2)cc1 (stereo unspecified)	> 120 µM (not active)
C=CCNC(=O)c1ccc(OC2CCN(S(=O)(=O)N(C)C)CC2)cc1	16.9 µM (active)
CC(C)N1C(=O)CC(Nc2ccc(N3CCOCC3)cc2)C1=O (stereo unspecified)	> 120 µM (not active)
Cn1c(-c2ccc3c(c2)OCO3)cnc1NCc1ccccc1	14.6 µM (active)

tested on: P388; assay: cells; assay type: functional; conditions: Mus musculus

Compound	GI50
CCCNC(=O)C(C)C1CCC2(C)C=CC(=O)C(C)=C2C1O (stereo unspecified)	> 100 µM (inactive)
C[C@H]1COC(c2ccccn2)=N1	> 100 µM (inactive)

tested on: SN12K1; assay: cells; assay type: functional; conditions: Homo sapiens

Compound	GI50
CCCNC(=O)C(C)C1CCC2(C)C=CC(=O)C(C)=C2C1O (stereo unspecified)	> 100 µM (inactive)
C[C@H]1COC(c2ccccn2)=N1	> 100 µM (inactive)

tested on: not listed separately; assay: off-target signal loss in HeLa-CEM21 co-culture – HeLa F-luc CTL cells, cherry-picked, counter-screen for HIV-1 Env fusion inhibitor project, dose response (AID 652040); assay type: functional, cell-based; conditions: not given;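 also: potency for signal decrease marking cytotoxic or nonspecific inhibition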

Compound	AC50
CC(C)(C)N1C(=O)[C@H]2[C@@H](c3ccc(Br)cc3)N3C(=O)N(c4cccc(Cl)c4)C(=O)[C@@]3(C)[C@H]2C1=O	0.843 µM (active)
Cn1c(O)nc2cc3ccccc3cc21	0.717 µM (active)
CCN1C(=O)[C@H]2[C@H]3CN=C(SCc4ccc(Cl)cc4)N3[C@@](CC)(C(=O)OC)[C@H]2C1=O	3.59 µM (active)
CC[C@@]1(C(=O)OC)N[C@H](CN(C)C(=O)Nc2ccc(C(F)(F)F)cc2)[C@@H]2C(=O)N(Cc3ccccc3)C(=O)[C@@H]21	0.74 µM (active)

tested on: not listed separately; assay: Luminescence Cell-Based Dose Response HTS to Identify Activators of Luciferase Translation or Activity in H4 […] Cells. [Related pubchem assays: 1829 (Project Summary), 1814 (Primary HTS)]; assay type: functional; conditions: not given

Compound	EC50
O=C(CSc1ccc(-c2ccccc2)nn1)Nc1ccc2c(c1)OCCO2	13.1 µM (active)
Cc1ccc(N2C(=O)c3[nH]nc(C)c3C2c2ccco2)cc1 (stereo unspecified)	48.5 µM (active)
C=CCNC(=O)c1ccc(OC2CCN(S(=O)(=O)N(C)C)CC2)cc1	15.2 µM (active)
CC(C)N1C(=O)CC(Nc2ccc(N3CCOCC3)cc2)C1=O (stereo unspecified)	29.1 µM (active)
Cn1c(-c2ccc3c(c2)OCO3)cnc1NCc1ccccc1	6.69 µM (active)

tested on: P388/ADR; assay: cells; assay type: functional; conditions: Mus musculus

Compound	GI50
CCCNC(=O)C(C)C1CCC2(C)C=CC(=O)C(C)=C2C1O (stereo unspecified)	> 100 µM (inactive)
C[C@H]1COC(c2ccccn2)=N1	> 100 µM (inactive)

target: Cytochrome P450 2C9 (Homo sapiens, UniProt P11712); assay: not given; conditions: not given
Sequence (P11712 whole entry): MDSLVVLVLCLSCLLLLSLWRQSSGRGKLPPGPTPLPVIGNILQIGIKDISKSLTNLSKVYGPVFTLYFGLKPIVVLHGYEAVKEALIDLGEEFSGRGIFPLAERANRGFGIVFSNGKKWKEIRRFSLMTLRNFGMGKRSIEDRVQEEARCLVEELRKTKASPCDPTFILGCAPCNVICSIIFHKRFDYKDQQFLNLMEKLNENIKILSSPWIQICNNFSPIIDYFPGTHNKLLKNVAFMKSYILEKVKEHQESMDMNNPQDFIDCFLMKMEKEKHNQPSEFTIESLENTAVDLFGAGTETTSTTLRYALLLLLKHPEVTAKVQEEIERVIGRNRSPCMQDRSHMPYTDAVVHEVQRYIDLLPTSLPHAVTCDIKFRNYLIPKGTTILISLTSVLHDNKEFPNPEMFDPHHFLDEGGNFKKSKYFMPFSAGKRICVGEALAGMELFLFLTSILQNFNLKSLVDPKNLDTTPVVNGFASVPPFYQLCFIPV

Compound	AC50
Cn1c(-c2ccc3c(c2)OCO3)cnc1NCc1ccccc1	31.6 µM (inconclusive)
